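Where inhibition never reached the appropriate level, the endpoint shown equals the highest concentration tested. Otherwise, values were interpolated linearly from a five-concentration, 48-hour dose response in 96-well plates. Definition used: TGI = concentration required for complete inhibition of growth.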 *1 amine or outer side, *2 acyl side, *3 side chain or, on linkers, in order; H or OH if unused. Where a SMILES comes first, the peptide text is derived from it. Bridges are numbered along the chain shown (N, C = ends). Roman numbers before positions name the chains, in order. [ ]: non-standard residue; d: D form. The star is where a group is joined. ξ: configuration not given here. Actinocin(9to1) = Cc1c2oc3c(C)ccc(C(=O)[*:1])c3nc-2c(C(=O)[*:2])c(N)c1=O; X48 = O=C1CC(C(=O)[*:2])N([*:1])C1; dThr(3ξ) = CC(O)[C@@H](N)C(=O)O; dNMeL = CN[C@H](CC(C)C)C(=O)O; NMeV = CN[CH](C(=O)O)C(C)C; OBn = c1ccc(CO*)cc1; ξLac = CC(O)C(=O)O; Sar = CNCC(=O)O
Legend:
Assay in all cases: NCI-60 cell line screen, 48 h
NCI/ADR-RES ovarian = system: NCI/ADR-RES ovarian
ACHN renal = system: ACHN renal
HL-60(TB) leukemia = system: HL-60(TB) leukemia
MDA-MB-435 = system: MDA-MB-435
HCC-2998 colon = system: HCC-2998 colon
UO-31 renal = system: UO-31 renal
SK-MEL-28 melanoma = system: SK-MEL-28 melanoma
U251 CNS = system: U251 CNS
A498 renal = system: A498 renal
A549 NSCLC = system: A549 NSCLC
COLO 205 colon = system: COLO 205 colon
MOLT-4 leukemia = system: MOLT-4 leukemia
OVCAR-5 ovarian = system: OVCAR-5 ovarian
M14 melanoma = system: M14 melanoma
RPMI-8226 leukemia = system: RPMI-8226 leukemia
MALME-3M melanoma = system: MALME-3M melanoma
UACC-62 melanoma = system: UACC-62 melanoma
K-562 leukemia = system: K-562 leukemia
SK-MEL-5 melanoma = system: SK-MEL-5 melanoma
NCI-H23 lung = system: NCI-H23 lung

Measured: TGI

c1ccc(C2C3=C(CCCC3)Nc3nc4cc5ccccc5cc4n32)cc1 (stereo unspecified)
> 100 µM: all assays above

CCCCCC(O)[C@H]1C(=O)C[C@@H](O[Si](C)(C)C(C)(C)C)[C@@H]1/C=C/CCOCc1ccccc1 (stereo partly specified)
28.8 µM: MALME-3M melanoma
41.5 µM: COLO 205 colon
> 59.4 µM: K-562 leukemia
> 60.3 µM: A549 NSCLC
27.5 µM: UO-31 renal
29.3 µM: NCI/ADR-RES ovarian
25.1 µM: UACC-62 melanoma
> 100 µM: HL-60(TB) leukemia
33.3 µM: NCI-H23 lung
36.6 µM: OVCAR-5 ovarian
37.9 µM: SK-MEL-5 melanoma
29.6 µM: U251 CNS
22.4 µM: MDA-MB-435
39.9 µM: A498 renal
> 44.8 µM: RPMI-8226 leukemia
30.9 µM: HCC-2998 colon
> 29.7 µM: MOLT-4 leukemia
26.2 µM: ACHN renal
34.5 µM: M14 melanoma
31 µM: SK-MEL-28 melanoma

Oc1c2cc(Br)cc1CCc1cc(Br)cc(c1O)CC2
65.8 µM: U251 CNS
32.9 µM: HCC-2998 colon
33.3 µM: SK-MEL-5 melanoma
65 µM: OVCAR-5 ovarian
57.2 µM: NCI/ADR-RES ovarian
73.8 µM: A498 renal
46 µM: UACC-62 melanoma
27.7 µM: COLO 205 colon
51.6 µM: HL-60(TB) leukemia
36.7 µM: M14 melanoma
66.6 µM: UO-31 renal
> 100 µM: all other assays above

O=C(c1cccc(OCc2ccccc2)c1OCc1ccccc1)N1CCSC1=S
26.4 µM: COLO 205 colon
> 72.9 µM: MALME-3M melanoma
38.7 µM: MOLT-4 leukemia
74.9 µM: NCI-H23 lung
33.1 µM: HL-60(TB) leukemia
31.7 µM: SK-MEL-5 melanoma
42.6 µM: UACC-62 melanoma
80.1 µM: A498 renal
43 µM: RPMI-8226 leukemia
97.2 µM: UO-31 renal
> 100 µM: all other assays above

CC(C)[Si](OC1=C(C(=O)Nc2ccccc2Cl)CCCCC1)(C(C)C)C(C)C
13.4 µM: HL-60(TB) leukemia
> 100 µM: all other assays above

O=S(=O)(N=S(c1ccc(Cl)cc1)c1ccc(Cl)cc1)c1ccccc1
> 100 µM: all assays above

CC1=NN(C(=O)CC(=O)Nc2ccccc2Cl)C(=O)C1N=Nc1ccc(C(=O)O)cc1 (stereo unspecified)
> 100 µM: all assays above

CC(=O)OC(C)[C@@H](NC(=O)[C@@H](CC(C)C)N(C)C(=O)[C@@H]1CCCN1C(=O)C(C)O)C(=O)OCc1ccccc1 (stereo partly specified) (H-[ξLac]P[dNMeL][dThr(3ξ)](Ac)-OBn)
> 100 µM: all assays above

COC(=O)C1Cc2cccc(C)c2C1 (stereo unspecified)
> 100 µM: all assays above

COC(=O)c1ccc(N=NN(C)COc2ccc(C#N)cc2)cc1
50.4 µM: HL-60(TB) leukemia
not listed: UACC-62 melanoma
> 100 µM: all other assays above

NS(=O)(=O)c1ccc(NNc2c3ccccc3nc3ccccc23)cc1
22.1 µM: NCI-H23 lung
24.5 µM: NCI/ADR-RES ovarian
13.9 µM: COLO 205 colon
21.6 µM: RPMI-8226 leukemia
19.2 µM: MOLT-4 leukemia
16.3 µM: U251 CNS
17 µM: MDA-MB-435
17.2 µM: UACC-62 melanoma | SK-MEL-5 melanoma
18.1 µM: UO-31 renal
53.9 µM: A498 renal
17.1 µM: SK-MEL-28 melanoma
17.5 µM: OVCAR-5 ovarian
25.6 µM: A549 NSCLC
15.9 µM: M14 melanoma | MALME-3M melanoma
17.6 µM: HCC-2998 colon
19.9 µM: all other assays above

CCCCCCCC/C=C\CCCCCCC(F)C(=O)O (stereo unspecified)
not listed: UACC-62 melanoma
> 12.5 µM: all other assays above

CC1(C)CC[C@]2(C(=O)O)CC[C@]3(C)C(=CC[C@@H]4[C@@]5(C)C[C@H](O)[C@H](O)[C@@](C)(CO)C5=CC[C@]43C)[C@@H]2C1
92.6 µM: HCC-2998 colon
42.4 µM: COLO 205 colon
> 100 µM: all other assays above

Cc1ccc2c(c1)C(=O)C(Cc1ccccc1C(=O)O)C2 (stereo unspecified)
> 100 µM: all assays above

COc1ccccc1C(C1=C(O)COC1=O)c1cc2c(cc1OC(C)=O)OCO2 (stereo unspecified)
> 100 µM: all assays above

COC1=NC(NC2OCC(O)C(O)C2O)=C(NC(C)=O)CN1C (stereo unspecified)
not listed: U251 CNS
> 100 µM: all other assays above

N#CC1=C(S)N(C2OC(CO)C(O)C(O)C2O)C(c2ccccc2)=CC1c1ccccc1 (stereo unspecified)
62.7 µM: UACC-62 melanoma
86.8 µM: MOLT-4 leukemia
96.4 µM: HCC-2998 colon
43.6 µM: SK-MEL-5 melanoma
> 100 µM: all other assays above

Cc1c2oc3c(C)ccc(C(=O)NC4C(=O)NC(C(C)C)C(=O)N5CC(=O)CC5C(=O)N(C)CC(=O)N(C)C(C(C)C)C(=O)OC4C)c3nc-2c(C(=O)NC2C(=O)NC(C(C)C)C(=O)N3CC(=O)CC3C(=O)N(C)CC(=O)N(C)C(C(C)C)C(=O)OC2C)c(N)c1=O (stereo unspecified) (I: TV[X48][Sar][NMeV] / II: TV[X48][Sar][NMeV]; ester I:1-I:C, II:1-II:C; linker I:N-II:N via Actinocin(9to1); configuration not given here)
not listed: UACC-62 melanoma
> 1 µM: all other assays above

N#Cc1c(-c2ccccc2)c(N=Nc2ccc(F)cc2)c(=O)n2c1[nH]c1ccccc12
7.78 µM: MOLT-4 leukemia
26.3 µM: UACC-62 melanoma
12.9 µM: RPMI-8226 leukemia
17.9 µM: K-562 leukemia
13 µM: COLO 205 colon
> 64.6 µM: ACHN renal
19.3 µM: A549 NSCLC
50.5 µM: OVCAR-5 ovarian
4.94 µM: SK-MEL-5 melanoma
41 µM: A498 renal
18.1 µM: U251 CNS
> 75.7 µM: NCI-H23 lung
3.68 µM: HL-60(TB) leukemia
20.6 µM: NCI/ADR-RES ovarian | UO-31 renal
27.3 µM: M14 melanoma
72.5 µM: MALME-3M melanoma
> 100 µM: all other assays above

CC(=O)CCNc1ccc(-c2cc(-c3ccc(N(C)C)cc3)nc3ccc4ccccc4c23)cc1
> 88.3 µM: COLO 205 colon
> 88.8 µM: M14 melanoma
84.4 µM: HL-60(TB) leukemia
> 100 µM: all other assays above

O=c1c2cc([N+](=O)[O-])ccc2n(Cc2ccccc2)n1Cc1ccccc1
13.3 µM: SK-MEL-5 melanoma
17.5 µM: MDA-MB-435
22.7 µM: HL-60(TB) leukemia
18.8 µM: RPMI-8226 leukemia
20.3 µM: NCI/ADR-RES ovarian
20.7 µM: M14 melanoma
21.4 µM: UACC-62 melanoma
27.3 µM: UO-31 renal
> 31.6 µM: all other assays above

Nc1cc2c3c(cccc3c1)C(=O)N(c1ccc(OCCN3CCCCC3)cc1)C2=O
35.2 µM: SK-MEL-5 melanoma
61.6 µM: U251 CNS
55.7 µM: MDA-MB-435
30.2 µM: NCI-H23 lung
36.6 µM: UACC-62 melanoma
44 µM: OVCAR-5 ovarian
26.5 µM: HL-60(TB) leukemia
29.8 µM: K-562 leukemia
35.7 µM: COLO 205 colon | MOLT-4 leukemia
44.8 µM: SK-MEL-28 melanoma
19.8 µM: MALME-3M melanoma
40.9 µM: NCI/ADR-RES ovarian
28.2 µM: A549 NSCLC
24.1 µM: UO-31 renal
32.3 µM: M14 melanoma
31.9 µM: A498 renal
41.7 µM: RPMI-8226 leukemia
34 µM: HCC-2998 colon
29.4 µM: ACHN renal

Reference: PubChem BioAssay (NCI)
